# Assay results as given in ChEMBL document CHEMBL3885881, “DrugMatrix”.
# Organism: Rattus norvegicus
# Assay: DrugMatrix - Regimen: Daily Repeat
# Assay type: toxicity, organism-based, Sprague-Dawley
# Set-up: regimen Daily Repeat, gender Male, age 6-8 weeks
# Settings: in vivo, iv, vehicle 100 % SALINE; for ABSOLUTE BASOPHIL / ABSOLUTE EOSINOPHIL / ABSOLUTE LYMPHOCYTE / ABSOLUTE MONOCYTE / ABSOLUTE SEGMENTED NEUTROPHIL / BASOPHIL / EOSINOPHIL / ERYTHROCYTE COUNT / HEMATOCRIT / HEMOGLOBIN / LEUKOCYTE COUNT / LYMPHOCYTE / MEAN CORPUSCULAR HEMOGLOBIN / MEAN CORPUSCULAR HEMOGLOBIN CONCENTRATION / MEAN CORPUSCULAR VOLUME / MONOCYTE / NEUTROPHIL / NUCLEATED RED BLOOD CELLS / PLATELET COUNT: tissue Blood; for ALANINE AMINOTRANSFERASE / ALBUMIN / ALKALINE PHOSPHATASE / ASPARTATE AMINOTRANSFERASE / BLOOD UREA NITROGEN / CARBON DIOXIDE / CHLORIDE / CHOLESTEROL / CREATINE PHOSPHOKINASE / CREATININE / GLUCOSE / LACTATE DEHYDROGENASE / LIPASE / PHOSPHORUS / POTASSIUM / SODIUM / TOTAL BILIRUBIN / TOTAL PROTEIN / URIC ACID: tissue Plasma
# [1] = 0.07 mg/kg, 72 h, dose level Low, time 3 day
# [2] = 0.07 mg/kg, 120 h, dose level Low, time 5 day
# [3] = […], 72 h, dose 0.16 mg/Kg, dose level High, time 3 day
# [4] = […], 120 h, dose 0.16 mg/Kg, dose level High, time 5 day
smiles,measurement,setting,value
CNC(=O)Oc1ccc2c(c1)[C@]1(C)CCN(C)[C@@H]1N2C [PHYSOSTIGMINE],ABSOLUTE BASOPHIL,[1],0 CELLS/uL
same,ABSOLUTE EOSINOPHIL,[1],271.33 CELLS/uL
same,ABSOLUTE LYMPHOCYTE,[1],11715.67 CELLS/uL
same,ABSOLUTE MONOCYTE,[1],88.33 CELLS/uL
same,ABSOLUTE SEGMENTED NEUTROPHIL,[1],1491.33 CELLS/uL
same,BASOPHIL,[1],0%
same,EOSINOPHIL,[1],2%
same,ERYTHROCYTE COUNT,[1],5.08 x10E6/uL
same,HEMATOCRIT,[1],32.57%
same,HEMOGLOBIN,[1],12.27 G/DL
same,LEUKOCYTE COUNT,[1],13.57 x10E3/uL
same,LYMPHOCYTE,[1],86.67%
same,MEAN CORPUSCULAR HEMOGLOBIN,[1],24.13 pg
same,MEAN CORPUSCULAR HEMOGLOBIN CONCENTRATION,[1],37.67 G/DL
same,MEAN CORPUSCULAR VOLUME,[1],64.1 fL
same,MONOCYTE,[1],0.67%
same,NEUTROPHIL,[1],10.67%
same,NUCLEATED RED BLOOD CELLS,[1],0 /100WBC
same,PLATELET COUNT,[1],1091 x10E3/uL
same,ALANINE AMINOTRANSFERASE,[1],64.33 u/L
same,ALBUMIN,[1],4.03 G/DL
same,ALKALINE PHOSPHATASE,[1],342.67 u/L
same,ASPARTATE AMINOTRANSFERASE,[1],99.67 u/L
same,BLOOD UREA NITROGEN,[1],14.67 mg/dL
same,CARBON DIOXIDE,[1],24.67 mmol/L
same,CHLORIDE,[1],105.33 MEQ/L
same,CHOLESTEROL,[1],67.33 mg/dL
same,CREATINE PHOSPHOKINASE,[1],386 u/L
same,CREATININE,[1],0.14 mg/dL
same,GLUCOSE,[1],161.67 mg/dL
same,LACTATE DEHYDROGENASE,[1],95.33 u/L
same,LIPASE,[1],7.67 u/L
same,PHOSPHORUS,[1],12.37 mg/dL
same,POTASSIUM,[1],5.92 MEQ/L
same,SODIUM,[1],144.47 MEQ/L
same,TOTAL BILIRUBIN,[1],0.17 mg/dL
same,TOTAL PROTEIN,[1],5.73 G/DL
same,URIC ACID,[1],1.23 mg/dL
same,ABSOLUTE BASOPHIL,[2],0 CELLS/uL
same,ABSOLUTE EOSINOPHIL,[2],138.33 CELLS/uL
same,ABSOLUTE LYMPHOCYTE,[2],16178.33 CELLS/uL
same,ABSOLUTE MONOCYTE,[2],247.67 CELLS/uL
same,ABSOLUTE SEGMENTED NEUTROPHIL,[2],2735.67 CELLS/uL
same,BASOPHIL,[2],0%
same,EOSINOPHIL,[2],0.67%
same,ERYTHROCYTE COUNT,[2],5.42 x10E6/uL
same,HEMATOCRIT,[2],34.33%
same,HEMOGLOBIN,[2],13.27 G/DL
same,LEUKOCYTE COUNT,[2],19.3 x10E3/uL
same,LYMPHOCYTE,[2],84%
same,MEAN CORPUSCULAR HEMOGLOBIN,[2],24.43 pg
same,MEAN CORPUSCULAR HEMOGLOBIN CONCENTRATION,[2],38.7 G/DL
same,MEAN CORPUSCULAR VOLUME,[2],63.27 fL
same,MONOCYTE,[2],1.33%
same,NEUTROPHIL,[2],14%
same,NUCLEATED RED BLOOD CELLS,[2],0 /100WBC
same,PLATELET COUNT,[2],1244.33 x10E3/uL
same,ALANINE AMINOTRANSFERASE,[2],50 u/L
same,ALBUMIN,[2],4.33 G/DL
same,ALKALINE PHOSPHATASE,[2],370 u/L
same,ASPARTATE AMINOTRANSFERASE,[2],86.67 u/L
same,BLOOD UREA NITROGEN,[2],22 mg/dL
same,CARBON DIOXIDE,[2],24 mmol/L
same,CHLORIDE,[2],102 MEQ/L
same,CHOLESTEROL,[2],62.33 mg/dL
same,CREATINE PHOSPHOKINASE,[2],479.33 u/L
same,CREATININE,[2],0.2 mg/dL
same,GLUCOSE,[2],168 mg/dL
same,LACTATE DEHYDROGENASE,[2],93.67 u/L
same,LIPASE,[2],8 u/L
same,PHOSPHORUS,[2],13.33 mg/dL
same,POTASSIUM,[2],6.49 MEQ/L
same,SODIUM,[2],141.5 MEQ/L
same,TOTAL BILIRUBIN,[2],0.2 mg/dL
same,TOTAL PROTEIN,[2],6.17 G/DL
same,URIC ACID,[2],1.63 mg/dL
same,ABSOLUTE BASOPHIL,[3],0 CELLS/uL
same,ABSOLUTE EOSINOPHIL,[3],107 CELLS/uL
same,ABSOLUTE LYMPHOCYTE,[3],10987.67 CELLS/uL
same,ABSOLUTE MONOCYTE,[3],71.33 CELLS/uL
same,ABSOLUTE SEGMENTED NEUTROPHIL,[3],1134 CELLS/uL
same,BASOPHIL,[3],0%
same,EOSINOPHIL,[3],1%
same,ERYTHROCYTE COUNT,[3],5.42 x10E6/uL
same,HEMATOCRIT,[3],33.77%
same,HEMOGLOBIN,[3],13 G/DL
same,LEUKOCYTE COUNT,[3],12.3 x10E3/uL
same,LYMPHOCYTE,[3],88.33%
same,MEAN CORPUSCULAR HEMOGLOBIN,[3],24.03 pg
same,MEAN CORPUSCULAR HEMOGLOBIN CONCENTRATION,[3],38.57 G/DL
same,MEAN CORPUSCULAR VOLUME,[3],62.37 fL
same,MONOCYTE,[3],0.67%
same,NEUTROPHIL,[3],10%
same,NUCLEATED RED BLOOD CELLS,[3],0 /100WBC
same,PLATELET COUNT,[3],1231 x10E3/uL
same,ALANINE AMINOTRANSFERASE,[3],56.33 u/L
same,ALBUMIN,[3],4.17 G/DL
same,ALKALINE PHOSPHATASE,[3],305 u/L
same,ASPARTATE AMINOTRANSFERASE,[3],87.33 u/L
same,BLOOD UREA NITROGEN,[3],15.33 mg/dL
same,CARBON DIOXIDE,[3],27.67 mmol/L
same,CHLORIDE,[3],107 MEQ/L
same,CHOLESTEROL,[3],78.67 mg/dL
same,CREATINE PHOSPHOKINASE,[3],187.33 u/L
same,CREATININE,[3],0.13 mg/dL
same,GLUCOSE,[3],159.33 mg/dL
same,LACTATE DEHYDROGENASE,[3],115.33 u/L
same,LIPASE,[3],8.67 u/L
same,PHOSPHORUS,[3],13.93 mg/dL
same,POTASSIUM,[3],6.15 MEQ/L
same,SODIUM,[3],147.9 MEQ/L
same,TOTAL BILIRUBIN,[3],0.17 mg/dL
same,TOTAL PROTEIN,[3],5.83 G/DL
same,URIC ACID,[3],1.43 mg/dL
same,ABSOLUTE BASOPHIL,[4],0 CELLS/uL
same,ABSOLUTE EOSINOPHIL,[4],171.67 CELLS/uL
same,ABSOLUTE LYMPHOCYTE,[4],8706.33 CELLS/uL
same,ABSOLUTE MONOCYTE,[4],43.33 CELLS/uL
same,ABSOLUTE SEGMENTED NEUTROPHIL,[4],3645.33 CELLS/uL
same,BASOPHIL,[4],0%
same,EOSINOPHIL,[4],1.33%
same,ERYTHROCYTE COUNT,[4],5.7 x10E6/uL
same,HEMATOCRIT,[4],35.8%
same,HEMOGLOBIN,[4],13.57 G/DL
same,LEUKOCYTE COUNT,[4],12.57 x10E3/uL
same,LYMPHOCYTE,[4],68.67%
same,MEAN CORPUSCULAR HEMOGLOBIN,[4],23.8 pg
same,MEAN CORPUSCULAR HEMOGLOBIN CONCENTRATION,[4],37.9 G/DL
same,MEAN CORPUSCULAR VOLUME,[4],62.8 fL
same,MONOCYTE,[4],0.33%
same,NEUTROPHIL,[4],29.67%
same,NUCLEATED RED BLOOD CELLS,[4],0 /100WBC
same,PLATELET COUNT,[4],1062 x10E3/uL
same,ALANINE AMINOTRANSFERASE,[4],52.67 u/L
same,ALBUMIN,[4],4.03 G/DL
same,ALKALINE PHOSPHATASE,[4],416.33 u/L
same,ASPARTATE AMINOTRANSFERASE,[4],80 u/L
same,BLOOD UREA NITROGEN,[4],15 mg/dL
same,CARBON DIOXIDE,[4],26 mmol/L
same,CHLORIDE,[4],104 MEQ/L
same,CHOLESTEROL,[4],60 mg/dL
same,CREATINE PHOSPHOKINASE,[4],226.67 u/L
same,CREATININE,[4],0.22 mg/dL
same,GLUCOSE,[4],181 mg/dL
same,LACTATE DEHYDROGENASE,[4],200 u/L
same,LIPASE,[4],7.67 u/L
same,PHOSPHORUS,[4],13.3 mg/dL
same,POTASSIUM,[4],6.09 MEQ/L
same,SODIUM,[4],146.53 MEQ/L
same,TOTAL BILIRUBIN,[4],0.13 mg/dL
same,TOTAL PROTEIN,[4],6.43 G/DL
same,URIC ACID,[4],1.77 mg/dL
